Values of other authors as cited in patent EP2168584A1, “PHARMACEUTICAL COMPOSITION COMPRISING THE COMBINATION OF A TRIAZOLOBENZODIAZEPINE AND A SELECTIVE SEROTONIN REUPTAKE INHIBITOR” (World Trade Import-Export, WTIE A.G., priority 2007, dated 2009).
Read-outs that look alike come from different tables or passages of the source.

How the values were obtained:
[1] = system: plasma proteins
[2] = system: human serum proteins
[3] = relative to the therapeutic activity of Alprazolam

For `Fc1ccc([C@@H]2CCNC[C@H]2COc2ccc3c(c2)OCO3)cc1` [Paroxetine], the “degree of fixation of plasma proteins” value [1] is given as “especially high”, the “binds to plasma proteins” value ([1]; plasma) is given as 95% and the elimination half-life (elderly and severe hepatic failure patients) is given as ≤ 36 h. The oral bioavailability (first-step metabolism) was 50%, the elimination half-life (human, in vivo) was 21 h and the dose metabolized (mainly in the liver, inactive metabolites) was “More than 95%”.

In the case of `CN[C@H]1CC[C@@H](c2ccc(Cl)c(Cl)c2)c2ccccc21` [Sertraline], the “degree of fixation of plasma proteins” value [1] is listed as “especially high”.

In the case of `Cc1nnc2n1-c1ccc(Cl)cc1C(c1ccccc1)=NC2` [Alprazolam], the “half-life of plasma elimination, range” value (human, in vivo) is listed as 6.3 to 26.9 h, the “Maximum plasma concentrations are obtained (time after administration)” value (human, in vivo, po) is listed as 1 to 2 h and the “bound to human serum proteins” value [2] is listed as 80%.

In the case of `CNCCC(Oc1ccc(C(F)(F)F)cc1)c1ccccc1` (stereo not drawn) [Fluoxetine], the “degree of fixation of plasma proteins” value [1] is listed as “especially high”.

For `OCc1nnc2n1-c1ccc(Cl)cc1C(c1ccccc1)=NC2` [alpha-hydroxy-alprazolam], the “biological activity of metabolite” value [3] is given as “approximately to half of the therapeutic activity of Alprazolam”.
